Assay: In vitro drug release from PLGA-PEG-PLGA hydrogel in microfluidic devices at physiological flow rate
Format: physicochemical
Details: 15 μg HA loaded; for release rate of hyaluronic acid from hydrogel: 35° C.; for amount of HA released: in 10 days
Experimental: The final volume of the hydrogel solution with the compound of interest was constrained to 100 μL because of the anatomical space in the lens capsule. Physiological flow rate (2.4 μl/min) was achieved using microfluidic devices. The devices resemble the anatomical dimensions of both the anterior and posterior chamber of the human eye, as well as the physiological dynamics of the aqueous humor flow. All of the release studies were conducted at 35° C. • a. Dexamethasone (Hydrophobic): 100 μL of PLGA-PEG-PLGA hydrogel solution at 25 (w/v) % was mixed with 100 μg of dexamethasone. The collected samples were analyzed via HPLC. • b. […] The collected samples were analyzed via fluoresce spectroscopy at an excitation, filter, and emission wavelengths (nm) of 483, 515 524, respectively • c. Nucleic acid conjugates (Hydrophilic): 62 μL of nucleic acid conjugates in PBS solution (31 μg) were mixed with 38 μL of hydrogel solution at a concentration of 25 (w/v) %. Because the nucleic acid conjugates were already dissolved in PBS, the hydrogel solution was diluted down to 14 (w/v) %. The collected samples were analyzed via fluorescence spectroscopy at an excitation, filter, and emission wavelengths (nm) of 642, 665, and 670, respectively. • d. Hyaluronic acid (Hydrophilic): 30 μL of hyaluronic acid (HA, 800 KDa) stock solution at a concentration of 0.5 mg/mL in PBS (15 ug of HA) was mixed with 56 μL of hydrogel solution at a concentration of 25 (w/v) %. In addition, 14 μL of PBS were added to diluted the hydrogel solution down to 14 (w/v) %. Samples containing PLL were prepared by adding to the already mentioned composition 10 mg of PLL (10 (w/v) % PLL). The collected samples were analyzed via fluorescence spectroscopy at an excitation, filter, and emission wavelengths (nm) of 483, 495, 518, respectively.

[1] = systems modified with 10 (w/v) % PLL

## Hyaluronic acid
Control systems, no PLL
  release rate of hyaluronic acid from hydrogel: 0.087 ± 0.044 µg/h
  amount of HA released: 13 µg
[1]
  release rate of hyaluronic acid from hydrogel: 0.055±0.026
  amount of HA released: 11 µg
